{
  "source": "patent US20210308196A1",
  "about": "“COMPOSITIONS AND METHODS TO PROMOTE HOST DEFENSE AND STIMULATE, EXPAND, AND/OR RESET T CELL REPERTOIRES” (EVOLVE BIOSYSTEMS, INC., priority 2018, published 2021)",
  "tested_on": "human colonic mucin glycans",
  "test": "Fecal glycome and colonic mucin-derived O-glycans (nano-HPLC-Chip-TOF MS)",
  "type": "in vivo",
  "text": "A library of known mucin-specific O-glycans was compiled and used to query untargeted mass spectra of fecal samples.\nAnalysis of spectra obtained with nano-high performance liquid chromatography-chip/time-of flight mass spectrometry (nano-HPLC-Chip-TOF MS). […] Briefly, the HPLC system used was an Agilent 1200 series unit with a microfluidic chip, which was coupled to an Agilent 6220 series TOF mass spectrometer via chip cube interface. The capillary pump on the chromatography unit loaded the sample onto the 40-nL enrichment column at a flow rate of 4.0 μL/min with a 1-μL injection volume. A nano pump was used for analyte separation on the analytical column, which was […] and packed with porous graphitized carbon. Separation was accomplished using a binary gradient of aqueous solvent A (3% acetonitrile (ACN)/water (v/v) in 0.1% formic acid (FA)) and organic solvent B (90% ACN/water (v/v) in 0.1% FA) using a method developed for HMO separation. The sample was introduced into the TOF mass spectrometer via electrospray ionization, which was tuned and calibrated using a dual nebulizer electrospray source with calibrant ions ranging from m/z 118.086 to 2721.895, and data were collected in the positive mode. These untargeted spectra were reanalyzed in the present study.\nGlycan data analysis. The untargeted mass spectra were collected (as above) and analyzed using Agilent MassHunter Work station Data Acquisition version B.02.01 on the nanoHPLC-chip/TOF (Frese et al 2017). The “Find Compounds by Molecular Feature” function of the software was used to identify mucin glycan species within 20 ppm of theoretical masses. Compound abundances were expressed as volume in ion counts that corresponded to absolute abundances of the compounds in each sample. 1HexNAc-1NeuAc, 1HexNAc-1Hex-NeuAc, 2HexNAc-1NeuAc, 2HexNAc-1Hex-1Fuc, 2HexNAc-1Hex-1NeuAc, 2HexNAc-1Hex-2Fuc, 3HexNAc-1Hex-1Fuc, 2HexNAc-1Hex-1Fuc-1NeuAc, 2HexNAc-1Hex-1Fuc-2NeuAc, 3HexNAc-1Hex-2NeuAc and 3HexNAc-1Hex-2Fuc-1NeuAc were monitored as they are discriminitively human colonic glycans. Robbe et al. (2004) Rapid Communications in Mass Spectrometry 18(4): 412-420.\nStatistical analysis. Multiple t-tests were carried out with the Holm-Sidak correction in Graph Pad Prism 7 (GraphPad Software, La Jolla, Calif. USA). Pearson and Spearman correlational tests and principle component analyses were performed in R (v 3.4.2). Adonis test was carried out using a weighted UNIFRAC distance matrix (Lozupone et al 2011) in QIIME 1.9.1 (Caporaso et al 2010). […] The total oligosaccharide (OS) compositions of the samples were determined by the untargeted approach of nano-HPLC-Chip-TOF. The compounds were characterized using previously published libraries. Thomsson et al. (2002) Glycobiology 12(1): 1-14; Robbe et al. (2004) Rapid Communications in Mass Spectrometry 18(4): 412-420; Matamoros et al. (2013) Trends in Microbiology 21(4): 167-173; Karav et al. (2016) Applied and Environ. Micro. 82(12): 3622-3630. Among these compositions, free HMO (Frese et al. (2017) mSphere 2(6): e00501-e00517) and mucin OS were found in the infant fecal glycome. The degradation of human colonic mucin glycans by different gut microbiome profiles was determined as the difference between a B. infantis-dominated microbiome and microbiomes with more abundant mucolytic taxa, such as Bacteroidaceae. As target molecules, 1HexNAc-1NeuAc, 1HexNAc-1Hex-NeuAc, 2HexNAc-1NeuAc, 2HexNAc-1Hex-1Fuc, 2HexNAc-1Hex-1NeuAc, 2HexNAc-1 Hex-2Fuc, 3HexNAc-1Hex-1Fuc, 2HexNAc-1Hex-1Fuc-1NeuAc, 2HexNAc-1Hex-1Fuc-2NeuAc, 3HexNAc-1Hex-2NeuAc and 3HexNAc-1Hex-2Fuc-1NeuAc, were selected as typical human colonic mucin glycans, as shown by Robbe et al. (2004) Rapid Communications in Mass Spectrometry 18(4): 412-420.",
  "data": [
    {"substance": "Bifidobacterium longum subsp. infantis EVC001 [B. infantis EVC001]", "values": [
      {"measurement": "Number of total OS structures (including isomers and anomers)", "setting": "infant feces, FIG. 2A", "result": "360.44±102.52"},
      {"measurement": "Number of colonic mucin-derived O-glycan structures", "setting": "infant feces, FIG. 2B", "result": "6.33 (±2.24)"},
      {"measurement": "Relative abundance of colonic mucin-derived O-glycans, number of structures", "setting": "infant feces, FIG. 2C", "result": "1.78%±0.385"},
      {"measurement": "Colonic mucin-derived O-glycans, proportion of the total OS profile", "setting": "infant feces, FIG. 2D", "result": "1.68±1.12", "unit": "%"},
      {"measurement": "Glycan 1_0_0_1 (1HexNAc-1NeuAc) Log10 Volume EVC001-fed [Mean (+/− SD)]", "setting": "infant feces, neutral mass 512", "result": 5.39},
      {"measurement": "Glycan 1_1_0_1 (1HexNAc-1Hex-1NeuAc) Log10 Volume EVC001-fed [Mean (+/− SD)]", "setting": "infant feces, neutral mass 675", "result": 4.01},
      {"measurement": "Glycan 2_0_0_1 (2HexNAc-1NeuAc) Log10 Volume EVC001-fed [Mean (+/− SD)]", "setting": "infant feces, neutral mass 716", "result": 0},
      {"measurement": "Glycan 2_1_1_0 (2HexNAc-1Hex-1Fuc) Log10 Volume EVC001-fed [Mean (+/− SD)]", "setting": "infant feces, neutral mass 735", "result": 0},
      {"measurement": "Glycan 2_1_0_1 (2HexNAc-1Hex-1NeuAc) Log10 Volume EVC001-fed [Mean (+/− SD)]", "setting": "infant feces, neutral mass 878", "result": 5.56},
      {"measurement": "Glycan 2_1_2_0 (2HexNAc-1Hex-2Fuc) Log10 Volume EVC001-fed [Mean (+/− SD)]", "setting": "infant feces, neutral mass 879", "result": 5.48},
      {"measurement": "Glycan 3_1_1_0 (3HexNAc-1Hex-1Fuc) Log10 Volume EVC001-fed [Mean (+/− SD)]", "setting": "infant feces, neutral mass 936", "result": 5.43},
      {"measurement": "Glycan 2_1_1_1 (2HexNAc-1Hex-1Fuc-1NeuAc) Log10 Volume EVC001-fed [Mean (+/− SD)]", "setting": "infant feces, neutral mass 1024", "result": 5.38},
      {"measurement": "Glycan 2_1_1_2 (2HexNAc-1Hex-1Fuc-2NeuAc) Log10 Volume EVC001-fed [Mean (+/− SD)]", "setting": "infant feces, neutral mass 1315", "result": 6.68},
      {"measurement": "Glycan 3_1_0_2 (3HexNAc-1Hex-2NeuAc) Log10 Volume EVC001-fed [Mean (+/− SD)]", "setting": "infant feces, neutral mass 1372", "result": 5.47},
      {"measurement": "Glycan 3_1_2_1 (3HexNAc-1Hex-2Fuc-1NeuAc) Log10 Volume EVC001-fed [Mean (+/− SD)]", "setting": "infant feces, neutral mass 1373", "result": 6.12},
      {"measurement": "Mucin degradation", "setting": "supplemented infants compared to the control group", "result": "significantly less"}
    ]}
  ]
}
